In the NIST ThermoML archive (doi:10.1021/je060017i):

Assays:
[1] = excess molar enthalpy (molar enthalpy of mixing); xn = mol fraction of the nth substance listed; details: 101 kPa, Liquid, Flow calorimetry
[2] = xn = mol fraction of the nth substance listed; details: 101 kPa, Liquid

CC1CCCO1 (configuration not stated) [2-methyltetrahydrofuran] + CCCCO
Details	excess molar enthalpy [kcal/mol]	mass density [kg/m3]	speed of sound [m/s]	viscosity [mPa·s]
[1], 283.15 K, x1 = 0.054	0.0237	–	–	–
[1], 283.15 K, x1 = 0.104	0.0492	–	–	–
[1], 283.15 K, x1 = 0.206	0.092	–	–	–
[1], 283.15 K, x1 = 0.308	0.131	–	–	–
[1], 283.15 K, x1 = 0.411	0.154	–	–	–
[1], 283.15 K, x1 = 0.51	0.166	–	–	–
[1], 283.15 K, x1 = 0.609	0.166	–	–	–
[1], 283.15 K, x1 = 0.708	0.151	–	–	–
[1], 283.15 K, x1 = 0.806	0.121	–	–	–
[1], 283.15 K, x1 = 0.907	0.0696	–	–	–
[1], 283.15 K, x1 = 0.953	0.038	–	–	–
[1], 298.15 K, x1 = 0.054	0.0263	–	–	–
[1], 298.15 K, x1 = 0.104	0.0526	–	–	–
[1], 298.15 K, x1 = 0.206	0.102	–	–	–
[1], 298.15 K, x1 = 0.308	0.14	–	–	–
[1], 298.15 K, x1 = 0.411	0.166	–	–	–
[1], 298.15 K, x1 = 0.51	0.179	–	–	–
[1], 298.15 K, x1 = 0.609	0.178	–	–	–
[1], 298.15 K, x1 = 0.708	0.162	–	–	–
[1], 298.15 K, x1 = 0.806	0.129	–	–	–
[1], 298.15 K, x1 = 0.907	0.0741	–	–	–
[1], 298.15 K, x1 = 0.953	0.0406	–	–	–
[1], 313.15 K, x1 = 0.054	0.0277	–	–	–
[1], 313.15 K, x1 = 0.104	0.0559	–	–	–
[1], 313.15 K, x1 = 0.206	0.109	–	–	–
[1], 313.15 K, x1 = 0.308	0.151	–	–	–
[1], 313.15 K, x1 = 0.411	0.179	–	–	–
[1], 313.15 K, x1 = 0.51	0.193	–	–	–
[1], 313.15 K, x1 = 0.609	0.192	–	–	–
[1], 313.15 K, x1 = 0.708	0.174	–	–	–
[1], 313.15 K, x1 = 0.806	0.138	–	–	–
[1], 313.15 K, x1 = 0.907	0.0786	–	–	–
[1], 313.15 K, x1 = 0.953	0.0428	–	–	–
[2], 283.15 K, x1 = 0.0447	–	–	1292.4	–
[2], 283.15 K, x1 = 0.0518	–	–	–	3.231
[2], 283.15 K, x1 = 0.0539	–	820.03	–	–
[2], 283.15 K, x1 = 0.1047	–	822.92	–	–
[2], 283.15 K, x1 = 0.1048	–	–	–	2.67
[2], 283.15 K, x1 = 0.1154	–	–	1292.6	–
[2], 283.15 K, x1 = 0.2068	–	828.51	–	–
[2], 283.15 K, x1 = 0.2123	–	–	–	1.958
[2], 283.15 K, x1 = 0.2143	–	–	1291.5	–
[2], 283.15 K, x1 = 0.2451	–	–	1291	–
[2], 283.15 K, x1 = 0.3108	–	833.9	–	–
[2], 283.15 K, x1 = 0.3159	–	–	–	1.507
[2], 283.15 K, x1 = 0.4147	–	839.04	–	–
[2], 283.15 K, x1 = 0.4197	–	–	–	1.218
[2], 283.15 K, x1 = 0.4221	–	–	1286.8	–
[2], 283.15 K, x1 = 0.4893	–	842.56	–	–
[2], 283.15 K, x1 = 0.5195	–	–	–	1.013
[2], 283.15 K, x1 = 0.5204	–	–	1284	–
[2], 283.15 K, x1 = 0.6172	–	–	1281.2	–
[2], 283.15 K, x1 = 0.6195	–	848.41	–	–
[2], 283.15 K, x1 = 0.6211	–	–	–	0.865
[2], 283.15 K, x1 = 0.7116	–	–	–	0.76
[2], 283.15 K, x1 = 0.7128	–	–	1278.1	–
[2], 283.15 K, x1 = 0.724	–	852.97	–	–
[2], 283.15 K, x1 = 0.8078	–	–	1275.2	–
[2], 283.15 K, x1 = 0.8103	–	–	–	0.675
[2], 283.15 K, x1 = 0.8923	–	859.92	–	–
[2], 283.15 K, x1 = 0.8952	–	–	1272.2	–
[2], 283.15 K, x1 = 0.9246	–	–	–	0.607
[2], 283.15 K, x1 = 0.9364	–	–	1270.3	–
[2], 283.15 K, x1 = 0.9585	–	–	–	0.584
[2], 298.15 K, x1 = 0.0341	–	–	1242.6	–
[2], 298.15 K, x1 = 0.0518	–	–	–	2.212
[2], 298.15 K, x1 = 0.102	–	811.16	–	–
[2], 298.15 K, x1 = 0.1048	–	–	–	1.914
[2], 298.15 K, x1 = 0.1054	–	–	1241.6	–
[2], 298.15 K, x1 = 0.2068	–	816.38	–	–
[2], 298.15 K, x1 = 0.2085	–	–	1238.8	–
[2], 298.15 K, x1 = 0.2123	–	–	–	1.446
[2], 298.15 K, x1 = 0.2968	–	–	1235.7	–
[2], 298.15 K, x1 = 0.3108	–	821.37	–	–
[2], 298.15 K, x1 = 0.3159	–	–	–	1.145
[2], 298.15 K, x1 = 0.3535	–	–	1233.4	–
[2], 298.15 K, x1 = 0.4152	–	826.08	–	–
[2], 298.15 K, x1 = 0.4197	–	–	–	0.951
[2], 298.15 K, x1 = 0.4283	–	–	1230.3	–
[2], 298.15 K, x1 = 0.4848	–	829.16	–	–
[2], 298.15 K, x1 = 0.5058	–	–	1226.8	–
[2], 298.15 K, x1 = 0.5195	–	–	–	0.806
[2], 298.15 K, x1 = 0.6075	–	–	1222.2	–
[2], 298.15 K, x1 = 0.6191	–	834.74	–	–
[2], 298.15 K, x1 = 0.6211	–	–	–	0.701
[2], 298.15 K, x1 = 0.7077	–	–	1217.6	–
[2], 298.15 K, x1 = 0.7116	–	–	–	0.626
[2], 298.15 K, x1 = 0.7245	–	838.88	–	–
[2], 298.15 K, x1 = 0.8103	–	–	–	0.563
[2], 298.15 K, x1 = 0.8111	–	–	1212.6	–
[2], 298.15 K, x1 = 0.8157	–	842.28	–	–
[2], 298.15 K, x1 = 0.8911	–	845.05	–	–
[2], 298.15 K, x1 = 0.8947	–	–	1208.3	–
[2], 298.15 K, x1 = 0.9246	–	–	–	0.507
[2], 298.15 K, x1 = 0.9337	–	–	1206.1	–
[2], 298.15 K, x1 = 0.9585	–	–	–	0.502
[2], 313.15 K, x1 = 0.0518	–	–	–	1.555
[2], 313.15 K, x1 = 0.0519	–	–	1184.6	–
[2], 313.15 K, x1 = 0.1038	–	799.46	–	–
[2], 313.15 K, x1 = 0.1048	–	–	–	1.361
[2], 313.15 K, x1 = 0.1237	–	–	1181.8	–
[2], 313.15 K, x1 = 0.2098	–	804.34	–	–
[2], 313.15 K, x1 = 0.2123	–	–	–	1.085
[2], 313.15 K, x1 = 0.2168	–	–	1177.7	–
[2], 313.15 K, x1 = 0.3097	–	–	1172.9	–
[2], 313.15 K, x1 = 0.3139	–	808.86	–	–
[2], 313.15 K, x1 = 0.3159	–	–	–	0.896
[2], 313.15 K, x1 = 0.4133	–	–	1167.2	–
[2], 313.15 K, x1 = 0.4135	–	813	–	–
[2], 313.15 K, x1 = 0.4197	–	–	–	0.759
[2], 313.15 K, x1 = 0.4906	–	816.02	–	–
[2], 313.15 K, x1 = 0.511	–	–	1161.3	–
[2], 313.15 K, x1 = 0.5195	–	–	–	0.651
[2], 313.15 K, x1 = 0.6175	–	820.8	–	–
[2], 313.15 K, x1 = 0.6211	–	–	–	0.574
[2], 313.15 K, x1 = 0.6561	–	–	1152.6	–
[2], 313.15 K, x1 = 0.7116	–	–	–	0.518
[2], 313.15 K, x1 = 0.7256	–	824.59	–	–
[2], 313.15 K, x1 = 0.7265	–	–	1148.3	–
[2], 313.15 K, x1 = 0.8103	–	–	–	0.473
[2], 313.15 K, x1 = 0.8151	–	–	1142.7	–
[2], 313.15 K, x1 = 0.8172	–	827.71	–	–
[2], 313.15 K, x1 = 0.8909	–	830.17	–	–
[2], 313.15 K, x1 = 0.8995	–	–	1137.1	–
[2], 313.15 K, x1 = 0.9246	–	–	–	0.432
[2], 313.15 K, x1 = 0.9476	–	–	1133.5	–
[2], 313.15 K, x1 = 0.9585	–	–	–	0.425
